According to PMC7534330, “UHPLC-MS/MS method for pharmacokinetic and bioavailability determination of five bioactive components in raw and various processed products of Polygala tenuifolia in rat plasma” (Pharmaceutical Biology, 2020):

Key:
[1] = Pharmacokinetics of five components in rat plasma after oral administration of RPT, LPT and HPT extracts (UHPLC-MS/MS); conditions: male, SD, in vivo, 1.9 g/kg; for AUC(0-t): AUC0-t; for AUC(0-inf): AUC0-∞; for MRT last: MRT0-t; for half-life: t1/2
Method: (§1) A Thermo Hypersil Gold C18 column (3.0 × 100 mm, i.d.; 3 μm) was used for chromatographic separation. An aqueous 10 mM ammonium acetate solution (A) and acetonitrile (B) were selected as the mobile phase components. The optimal gradient program involved the following steps: 5% B (0–1 min), changing to 85% B (1–3.5 min), 85% B (3.5–4.0 min), changing to 5% B (4.0–4.1 min) and 5% B (4.1–5.0 min). The flow rate was set to 0.4 mL/min, the autosampler was maintained at 4 °C and the injection volume was 5 μL.
(§2) UHPLC-MS/MS was conducted by an Applied Biosystems (AB) Sciex Exion LC system (Foster City, CA) connected to a 6500 + triple quad tandem mass spectrometer with an electrospray ionization source. All detection and quantifications were carried out in positive multiple reaction monitoring (MRM) mode. The optimized parameters were programmed as follows: ion source temperature, 500 °C; curtain gas pressure, 30 kPa; ion source gas 1 pressure, 55 kPa; ion source gas 2 pressure, 55 kPa; and ion spray voltage, […]. The chemical structures and ion mass spectra of targeted compounds are shown in Figure 1. The precursor ion and product ion were m/z 517.1 → 174.9 for A5, m/z 547.0 → 204.9 for A6, m/z 753.2 → 205.2 for DSS, m/z 681.3 → 443.3 for TFSA, m/z 236.8 → 103.2 for TMCA and m/z 136.9 → 92.9 for IS. All data were acquired by using AB Sciex Analyst software (version 1.6.3).
(§3) After thawing the frozen blood samples at room temperature, a 100 μL aliquot of plasma was spiked with 50 μL of the IS working solution in 2 mL EP tubes, and 750 μL of methanol was added into each of the tubes. Then, these tubes were mixed on a multi-tube Vortexer for 0.5 min before centrifugation at 11,800×g for 10 min. Finally, 200 μL of the obtained supernatant was transferred to a fresh autosampler vial, and then 5 μL of the sample was injected for analysis.
Male SD rats were randomly divided into four groups (n = 6 in each group), including the RPT group, LPT group, HPT group and control group. All oral administration samples were mixed with 0.5% CMC-Na (w/v) and then given to rats at a dose equivalent to 1.9 g/kg of RPT extract. The control group was orally treatment with equal volume of 0.5% CMC-Na solution. After a single administration, all blood samples were collected from the orbital vein into heparinized centrifuge tubes before administration (0 h) and at 0.083, 0.17, 0.25, 0.5, 0.75, 1, 1.5, 2, 3, 5, 8 and 12 h after administration and then centrifuged at 4 °C and 11,800×g for 10 min. The separated supernatant samples were preserved at −80 °C until they were measured.
(§4) The elementary pharmacokinetic parameters of plasma samples were analyzed by DAS 2.0 pharmacokinetic software. One-way analysis of variance (ANOVA) was used for statistical comparison for pharmacokinetic and interaction studies. A p-value < 0.05 indicated a significant difference. The main parameters considered were as follows: AUC0–∞ (the area under the blood concentration-time curve from zero to infinity initial plasma concentration), MRT (the mean residence time), Cmax (peak plasma concentration) and Tmax (time to reach Cmax for oral dose), t1/2 (elimination half-life) (He et al. [2015]). The absolute bioavailability (F) was evaluated as follows: F(%)=(AUCoral×Dosei.v.)/(AUCi.v.×Doseoral)×100%

[2] = Stability of the five analytes in rat plasma; assay type: in vitro ADME; conditions: rat; for Long-term stability, Mean: 4 weeks; for Short-term stability, Mean: 5 h; for Auto-sampler stability, Mean: 24 h
Method: Stock standards of A5, A6, DSS, TFSA, TMCA and IS were prepared in methanol at a concentration of 1 mg/mL. A series of working standard solutions of the targeted compounds ranging from 10 to 20,000 ng/mL and the IS solution at 600 ng/mL were prepared by diluting the stock solutions with methanol and maintained at −20 °C. Calibration standards were freshly prepared by spiking the series of standard solutions (30 μL) including the IS into blank rat plasma (270 μL) to achieve concentrations of 1, 10, 50, 100, 500, 1000, 1600 and 2000 ng/mL. Quality control (QC) samples were prepared independently at low (2 ng/mL), medium (600 ng/mL) and high (1600 ng/mL) concentrations following the same method for the five compounds.
Stability studies included short-term stability (5 h at room temperature, i.e. 25 °C), freeze-thaw stability (three consecutive freeze-thaw cycles from −20 °C to room temperature), autosampler stability (24 h storage in the autosampler at 4 °C) and long-term stability (4 weeks storage at −80 °C). The stability data of all analytes are presented in Supplementary Table S4.

[3] = Pharmacokinetics and absolute bioavailability of five compounds after oral and i.v. administration (UHPLC-MS/MS); assay type: in vivo; conditions: rat, in vivo; for AUCΔ0-t (dose-normalized) / AUCΔ0-∞ (dose-normalized) / CΔmax (dose-normalized) / half-life / Tmax: SD
Method: as §1, §2, §3
The SD rats were randomly divided into oral and i.v. groups for A5, A6, DSS, TFSA and TMCA administration (n = 6 in each group). The oral doses of A5, A6, DSS, TFSA and TMCA groups were 7.40, 11.60, 16.00, 50.00 and 3.11 mg/kg, respectively, and the corresponding i.v. doses were 0.74, 1.16, 1.60, 5.00 and 0.31 mg/kg, respectively. Blood samples were collected from the suborbital vein into heparinized tubes before and 0, 0.083, 0.17, 0.25, 0.5, 1, 2, 3, 5 and 8 h after administration. The treatment method of blood samples was the same as that mentioned above.
as §4

Row | SMILES | Cmax [1] | Freeze-thaw stability, Mean ([2]; 2 ng/mL) | Freeze-thaw stability, Mean ([2]; 600 ng/mL) | Freeze-thaw stability, Mean ([2]; 1600 ng/mL) | Long-term stability, Mean ([2]; 2 ng/mL) | Long-term stability, Mean ([2]; 600 ng/mL) | Long-term stability, Mean ([2]; 1600 ng/mL) | Short-term stability, Mean ([2]; 2 ng/mL) | Short-term stability, Mean ([2]; 600 ng/mL) | Short-term stability, Mean ([2]; 1600 ng/mL) | Auto-sampler stability, Mean ([2]; 2 ng/mL) | Auto-sampler stability, Mean ([2]; 600 ng/mL) | Auto-sampler stability, Mean ([2]; 1600 ng/mL) | AUCΔ0-t (dose-normalized) ([3]; iv) | AUCΔ0-∞ (dose-normalized) ([3]; iv) | CΔmax (dose-normalized) ([3]; iv) | half-life ([3]; iv) | AUCΔ0-t (dose-normalized) ([3]; po) | AUCΔ0-∞ (dose-normalized) ([3]; po) | CΔmax (dose-normalized) ([3]; po) | also measured
1 | COc1cc(C=CC(=O)OC2C(O)C(CO)OC2(CO)OC2OC(CO)C(O)C(O)C2O)cc(OC)c1O (stereo not shown) [A6, Sibiricose A6] | 183 ± 30.8 ng/mL | 92.4% | 91.5% | 98.3% | 93.5% | 96.3% | 96.5% | 91.5% | 94.7% | 97.4% | 87.5% | 92.1% | 97.3% | 299.15 ± 100.23 ng·h/mL | 299.16 ± 100.23 ng·h/mL | 1204.66 ± 249.66 ng/mL | 35.4 ± 6 min | 8.82 ± 2.40 ng·h/mL | 8.82 ± 2.40 ng·h/mL | 4.95 ± 1.64 ng/mL | AUC(0-t) [1]: 570 ± 179 ng·h/mL; AUC(0-inf) [1]: 572 ± 179 ng·h/mL; MRT last [1]: 3.21 ± 0.78 h; Tmax ([1]; Tmax): 3.2 ± 1.64 h; half-life [1]: 85.8 ± 7.2 min; half-life ([3]; po): 37.2 ± 9.6 min; Tmax ([3]; po): 30 min; F, absolute bioavailability [3]: 2.95 % of dose
2 | COc1cc(C=CC(=O)OCC2OC(OC3(CO)OC(CO)C(O)C3OC(=O)C=Cc3cc(OC)c(O)c(OC)c3)C(O)C(O)C2O)cc(OC)c1O (stereo not shown) [DSS, 3,6′-disinapoyl sucrose] | 74.1 ± 30.2 ng/mL | 89.3% | 97.3% | 99.7% | 95.3% | 97.3% | 93.2% | 95.3% | 98.5% | 98.1% | 92.1% | 97.7% | 98.6% | 106.32 ± 12.09 ng·h/mL | 107.00 ± 12.09 ng·h/mL | 682.88 ± 120.92 ng/mL | 58.8 ± 16.2 min | 2.51 ± 1.07 ng·h/mL | 2.86 ± 1.33 ng·h/mL | 4.39 ± 1.69 ng/mL | half-life ([3]; po): 60.6 ± 27 min; Tmax ([3]; po): 10.2 min; F, absolute bioavailability [3]: 2.36 % of dose
3 | COc1cc(/C=C/C(=O)O[C@H]2[C@H](O)[C@@H](CO)O[C@@]2(CO)O[C@H]2O[C@H](CO)[C@@H](O)[C@H](O)[C@H]2O)ccc1O [A5, Sibiricose A5] | 169 ± 16.1 ng/mL | 92.1% | 93.5% | 101.6% | 88.6% | 97.9% | 96.6% | 94.4% | 95.2% | 98.3% | 89.4% | 94.2% | 98.7% | 368.32 ± 57.16 ng·h/mL | 368.34 ± 57.18 ng·h/mL | 1784.32 ± 136.39 ng/mL | 73.2 ± 4.2 min | 11.99 ± 2.01 ng·h/mL | 12.01 ± 2.00 ng·h/mL | 9.21 ± 2.30 ng/mL | Tmax [1]: 2.60 ± 0.71 h; AUC(0-t) [1]: 552 ± 31.1 ng·h/mL; AUC(0-inf) [1]: 553 ± 47.1 ng·h/mL; MRT last [1]: 2.64 ± 0.18 h; Tmax ([1]; Tmax): 2 h; half-life [1]: 73.8 ± 12.6 min; half-life ([3]; po): 76.2 ± 33 min; Tmax ([3]; po): 15 min; F, absolute bioavailability [3]: 3.25 % of dose
4 | COc1cc(/C=C/C(=O)O[C@H]2[C@H](O)[C@@H](CO)O[C@@]2(CO)O[C@H]2O[C@H](COC(=O)c3ccc(O)cc3)[C@@H](O)[C@H](O)[C@H]2O)cc(OC)c1OC [TFSA, tenuifoliside A] | 107 ± 47.7 ng/mL | 96.5% | 96.3% | 97.4% | 89.9% | 96.3% | 96.2% | 97.6% | 97.9% | 98.5% | 96.6% | 98.2% | 96.3% | 163.79 ± 11.83 ng·h/mL | 163.80 ± 11.83 ng·h/mL | 375.56 ± 13.65 ng/mL | 29.4 ± 3.6 min | 1.92 ± 0.85 ng·h/mL | 1.92 ± 0.85 ng·h/mL | 1.88 ± 0.76 ng/mL | AUC(0-t) [1]: 284 ± 185 ng·h/mL; AUC(0-inf) [1]: 297 ± 194 ng·h/mL; MRT last [1]: 2.92 ± 0.58 h; half-life ([3]; po): 55.2 ± 12.6 min; Tmax ([3]; po): ~11.4 min; F, absolute bioavailability [3]: 1.17 % of dose
